{"source": "patent US4443619A", "about": "“Chlorocitric acids” (Hoffmann-La Roche Inc., priority 1981, dated 1984)", "key": {"Stomach Emptying": {"system": "Stomach Emptying", "assay": "Effect on stomach emptying ([14C]glucose load) in rats (Example 25)", "assay_type": "in vivo", "settings": "0.33 mmoles/kg oral, 60 min after [14C]glucose load, mean ± S.E.", "procedure": "Rats were trained to consume a 3 hr 70% glucose meal from 8 a.m. to 11 a.m. daily. On the experimental day, compounds were administered orally by intubation 30 min before a [^14 C]glucose load was given also by intubation. […] Sixty minutes later the rats were killed by decapitation; blood and stomachs were collected on ice.\nData are expressed as follows: dpm×10^3 per ml of serum and dpm×10^3 per stomach."}, "[1]": {"assay": "Anorectic activities of stereoisomers: 3-day food consumption and body weight gain in meal-fed rats", "assay_type": "in vivo, Charles River female rats", "settings": "1.32 mmoles/kg oral, 3 days, mean ± S.E.", "procedure": "Charles River female rats (Charles River Breeding Laboratories, Wilmington, Mass.), weighing 196 to 210 g, were individually housed in wire-bottomed cages in a temperature-regulated (22° C.) light-controlled room (12 hr light, 6 a.m. to 6 p.m. and 12 hr dark, 6 p.m. to 6 a.m.). Animals were fasted 48 hr, then meal-fed a 70% glucose diet from 8 to 11 a.m. Following 5 to 12 days alimentation on the meal-feeding regimen, rats were dosed with the appropriate compounds orally by intubation 1/2 hr before the 3 hr meal for 3 days. The total food consumption and body weight gained during the 3 day period were determined. The control group consisted of 16 rats, while the experimental group consists of 8 rats."}, "[2]": {"assay": "Anorectic effect in 8 hour meal-fed Zucker rats (Example 17)", "assay_type": "in vivo, lean (Fa/-) and obese (fa/fa)", "procedure": "Lean (Fa/-) Zucker rats and obese (fa/fa) Zucker rats of both sexes were individually housed in wire-bottomed cages in a temperature-regulated (22° C.) light-controlled room (12 hr light, 6 a.m. to 6 p.m. and 12 hr dark, 6 p.m. 6 a.m.). The animals were fed a high carbohydrate (70% glucose) diet ad libitum for 13 days, dosed with the indicated compounds by oral intubation for 9 days and allowed to recover for 3 days. The animals were then meal fed from 8 a.m. to 4 p.m. for a period of 5 days, following which they were continued on the same meal schedule for an additional 6 days. During the 6-day period, the animals were administered the indicated compounds by oral intubation at 8 a.m. and 12 p.m. Food cups were weighed immediately after the meal."}, "[3]": {"assay": "Food intake in dogs, pyramiding oral doses (Examples 26 and 27)", "assay_type": "in vivo, beagle dogs", "procedure": "Twelve beagle dogs of both sexes weighing 7.6-12.2 kg were used for this test. The test compounds were contained in gelatin capsules for oral administration to two dogs of each sex. The animals were weighed and food consumption calculated daily excluding weekends throughout the test period. Each animal received 800 grams of diet daily consisting of 400 grams of Wayne pellet dog food mixed with 400 ml distilled water. The animals received pyramiding oral doses of the test compound over the three week period. On Monday and Tuesday of the first week the animals were weighed and food consumption was recorded (control). The animals received 3 mg/kg on Wednesday and 10 mg/kg on Friday of the first week. Doses of 30, 100 and 300 mg/kg were administered on Monday, Wednesday and Friday respectively during the second week. A final dose of 1000 mg/kg was administered on Monday of the third week.\nFood intake was determined by the procedure by pyramiding doses described in Example 26."}, "[4]": {"assay": "Body composition of meal-fed rats, 16 day study (Example 20)", "assay_type": "in vivo, Charles River female rats", "settings": "16 days", "procedure": "Two month old Charles River female rats (Charles River Breeding Laboratories, Wilmington, Mass.) were individually housed in wire-bottomedcages in a temperature-regulated (22° C.) light-controlled room (12 hr light, 6 a.m. to 6 p.m. and 12 hr dark, 6 p.m. to 6 a.m.). […] (1) control, (2) (-)-threo-chlorocitric acid (1.0 mmoles/kg, 227 mg/kg) administered by oral intubation 30 min before the 3 hr meal, and (3) (-)-threo-chlorocitric acid (1.1 mmoles/kg, 250 mg/kg as a dietary admixture for the 3 hr meal. Treatment was continued for 16 days. After 16 days of treatment, rats were killed by decapitation and blood was removed. […] C. Sullivan, et al, Am. J. Clinical Nutrition, 30 767 (1977). […] Total carcass lipid data are expressed in grams of percentages of carcass weight. An aliquot of saponified carcass extract was neutralized and total carcass nitrogen was determined using the Kjeldahl procedure described in \"Hawks\" Physiological Chemistry,\" B. L. Oser, ed., McGraw Book Co., New York, N.Y., 1965, page 1214. Carcass protein data are expressed in grams and percentages of carcass weight."}, "[5]": {"assay": "Body weight gain in 8 hour meal-fed Zucker rats (Example 18)", "assay_type": "in vivo, lean (Fa/-) and obese (fa/fa)", "settings": "0.66 mmoles/kg b.i.d. oral, 6 days, mean ± S.E.", "procedure": "Lean (Fa/-) Zucker rats and obese (fa/fa) Zucker rats of both sexes were individually housed in wire-bottomed cages in a temperature-regulated (22° C.) light-controlled room (12 hr light, 6 a.m. to 6 p.m. and 12 hr dark, 6 p.m. to 6 a.m.). The animals were fed a high carbohydrate (70% glucose) diet ad libitum for 13 days, dosed with the indicated compounds by oral intubation for 9 days and allowed to recover for 3 days. The animals were then meal fed from 8 a.m. to 4 p.m. for a period of 5 days, following which they were continued on the same meal schedule for an additional 6 days. During the 6-day period, the animals were administered the indicated compounds by oral intubation at 8 a.m. and 12 p.m. Body weight gain during the 6-day period was determined."}, "[6]": {"settings": "test day 20, no dose, (±) one animal, (+) and (-) two animals"}, "[7]": {"settings": "dietary admixture, 1.1 mmoles (250 mg)/kg"}, "[8]": {"settings": "oral intubation, 1.0 mmoles (227 mg)/kg"}}, "data": [{"compound": "O=C(O)C[C@@](O)(C(=O)O)[C@@H](Cl)C(=O)O", "note": "[(-)-threo-Chlorocitric acid, (-)-threo-chlorocitric acid]", "values": [{"measurement": "Serum, total per ml", "setting": "Stomach Emptying", "result": "1.9 ± 0.4", "unit": "dpm × 10^3"}, {"measurement": "Stomach Contents, total per stomach", "setting": "Stomach Emptying", "result": "2760 ± 69", "unit": "dpm × 10^3"}, {"measurement": "3-Day Body Weight Gain", "setting": "[1]", "result": "-22.4 ± 2.3", "unit": "g"}, {"measurement": "3-Day Food Consumption", "setting": "[1]", "result": "10.5 ± 1.3", "unit": "g"}, {"measurement": "Daily Food Consumption", "setting": "[2]; Fa/- lean, 0.66 mmoles/kg oral, treatment day 1", "result": "12.5 ± 1.1", "unit": "g"}, {"measurement": "Daily Food Consumption", "setting": "[2]; Fa/- lean, 0.66 mmoles/kg oral, treatment day 2", "result": "7.0 ± 0.9", "unit": "g"}, {"measurement": "Daily Food Consumption", "setting": "[2]; Fa/- lean, 0.66 mmoles/kg oral, treatment day 3", "result": "7.2 ± 0.7", "unit": "g"}, {"measurement": "Daily Food Consumption", "setting": "[2]; Fa/- lean, 0.66 mmoles/kg oral, treatment day 4", "result": "5.4 ± 1.1", "unit": "g"}, {"measurement": "Daily Food Consumption", "setting": "[2]; Fa/- lean, 0.66 mmoles/kg oral, treatment day 5", "result": "7.3 ± 1.5", "unit": "g"}, {"measurement": "Daily Food Consumption", "setting": "[2]; Fa/- lean, 0.66 mmoles/kg oral, treatment day 6", "result": "7.5 ± 1.3", "unit": "g"}, {"measurement": "Daily Food Consumption", "setting": "[2]; Fa/- lean, 0.66 mmoles/kg, day 0 (pretreatment)", "result": "10.8 ± 1.0", "unit": "g"}, {"measurement": "Daily Food Consumption", "setting": "[2]; fa/fa obese, 0.66 mmoles/kg oral, treatment day 1", "result": "10.7 ± 0.7", "unit": "g"}, {"measurement": "Daily Food Consumption", "setting": "[2]; fa/fa obese, 0.66 mmoles/kg oral, treatment day 2", "result": "5.9 ± 1.5", "unit": "g"}, {"measurement": "Daily Food Consumption", "setting": "[2]; fa/fa obese, 0.66 mmoles/kg oral, treatment day 3", "result": "5.8 ± 0.9", "unit": "g"}, {"measurement": "Daily Food Consumption", "setting": "[2]; fa/fa obese, 0.66 mmoles/kg oral, treatment day 4", "result": "5.5 ± 0.9", "unit": "g"}, {"measurement": "Daily Food Consumption", "setting": "[2]; fa/fa obese, 0.66 mmoles/kg oral, treatment day 5", "result": "4.9 ± 1.0", "unit": "g"}, {"measurement": "Daily Food Consumption", "setting": "[2]; fa/fa obese, 0.66 mmoles/kg oral, treatment day 6", "result": "5.1 ± 1.1", "unit": "g"}, {"measurement": "Daily Food Consumption", "setting": "[2]; fa/fa obese, 0.66 mmoles/kg, day 0 (pretreatment)", "result": "13.1 ± 1.1", "unit": "g"}, {"measurement": "Food Consumption, % of control", "setting": "[3]; [6]", "result": "82 % of control"}, {"measurement": "Food consumption", "setting": "[3]; [6]", "result": "607 ± 193", "unit": "g"}, {"measurement": "Food consumption", "setting": "[3]; test days -2, -1, before dosing (control period)", "result": "743 ± 54", "unit": "g"}, {"measurement": "Carcass Lipid, % of carcass weight", "setting": "[4]; [7]", "result": "4.01 ± 0.45 % of carcass weight"}, {"measurement": "Carcass Lipid, total", "setting": "[4]; [7]", "result": "7.01 ± 0.92", "unit": "g"}, {"measurement": "Carcass Nitrogen, % of carcass weight", "setting": "[4]; [7]", "result": "4.10 ± 0.14 % of carcass weight"}, {"measurement": "Carcass Nitrogen, total", "setting": "[4]; [7]", "result": "7.16 ± 0.29", "unit": "g"}, {"measurement": "Carcass Weight", "setting": "[4]; [7]", "result": "176 ± 8", "unit": "g"}, {"measurement": "Carcass Lipid, % of carcass weight", "setting": "[4]; [8]", "result": "1.94 ± 0.13 % of carcass weight"}, {"measurement": "Carcass Lipid, total", "setting": "[4]; [8]", "result": "2.74 ± 0.19", "unit": "g"}, {"measurement": "Carcass Nitrogen, % of carcass weight", "setting": "[4]; [8]", "result": "4.27 ± 0.22 % of carcass weight"}, {"measurement": "Carcass Nitrogen, total", "setting": "[4]; [8]", "result": "6.57 ± 0.30", "unit": "g"}, {"measurement": "Carcass Weight", "setting": "[4]; [8]", "result": "155 ± 4", "unit": "g"}, {"measurement": "Body Weight Gain", "setting": "[5]; Fa/- lean", "result": "-20.7 ± 2.2", "unit": "g"}, {"measurement": "Body Weight Gain", "setting": "[5]; fa/fa obese", "result": "-33.5 ± 3.1", "unit": "g"}]}]}
